Test results taken from US11364275B2, “Linear lipopeptide paenipeptins and methods of using the same” (priority 2017, dated 2022).
Where a SMILES comes first, the peptide text is derived from it. [ ]: non-standard residue; d: D form. The star is where a group is joined. Dab = NCC[C@H](N)C(=O)O; Cbz = O=C(OCc1ccccc1)*

How the values were obtained:
[1] = test system: Escherichia coli ATCC 25922; assay type: cell-based; conditions: E. coli ATCC 25922; TSB
[2] = test system: rabbit red blood cells; experiment: Hemolytic activity; assay type: cell-based; conditions: for Hemolysis: relative to Triton X-100
In short: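 Washed defibrinated rabbit RBCs in PBS pH 7.2 incubated 30 min at 37 °C with paenipeptin analogues at 16–128 μg/mL final. Released hemoglobin read at 415 nm in the supernatant; % hemolysis relative to 0.1% Triton X-100.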

[3] = test system: K. pneumoniae FDA-CDC AR0097; experiment: Time-kill kinetics in 95% human serum, alone and combined; assay type: cell-based, Klebsiella pneumoniae
Description: Bacterial viable counts were determined at 0, 2, 4, 6, and 24 h after antimicrobial treatment. Bacterial surviving counts at 24 h endpoints were subjected to analysis of variance (ANOVA) followed by Tukey's honest significant difference (HSD) tests using SPSS Statistics (version 24; SPSS, Inc., Chicago, Ill., USA).
To further test the therapeutic potential of paenipeptin analogues, the time-kill kinetics assays of paenipeptins alone or in combination with other antibiotics were performed in 95% human serum in vitro.

Question: Which MIC [1] does the source give for CC[C@H](C)[C@H](NC(=O)[C@H](CCN)NC(=O)OCc1ccccc1)C(=O)N[C@@H](CCN)C(=O)N[C@H](Cc1ccccc1)C(=O)N[C@@H](CC(C)C)C(=O)N[C@@H](CCN)C(=O)N[C@@H](C(=O)N[C@@H](CC(C)C)C(=O)N[C@@H](CO)C(N)=O)C(C)C [Analogue 15] (Cbz-[Dab]I[Dab][dF]L[Dab][dV]LS-NH2) here?
Answer: 8 to 16 µg/mL

Question: And the Hemolysis ([2]; 16 μg/mL)?
Answer: 0.77 ± 0.15%

Question: And the Hemolysis ([2]; 32 μg/mL)?
Answer: 0.41 ± 0.67%

Question: What about the Hemolysis ([2]; 64 μg/mL) of the same compound?
Answer: 0.54 ± 0.70%

Question: What about the “hemolytic activity (in words)” value ([2]; 128 μg/mL) of the same compound?
Answer: nonhemolytic

Question: And the Hemolysis ([2]; 128 μg/mL)?
Answer: 0.65 ± 0.29%

Question: And the “log reduction, analogue 4 μg/ml in combination with rifampicin 4 μg/ml” value ([3]; 24 h)?
Answer: 4.6 log

Question: What about the “log inactivation, single agent at 4 μg/ml” value ([3]; within 24 h) of the same compound?
Answer: didn't show bactericidal activity
